Laboratory results as given in US6989384B2, “Antipicornaviral compounds and compositions, their pharmaceutical uses, and materials for their synthesis” (Agouron Pharmaceuticals, Inc., priority 2000, dated 2006).
Like-named read-outs stand apart in the source and are kept apart here.

Experiments:
[1] = target: T1, rhinovirus 3C protease from HRV serotype-14 (Human rhinovirus 14, UniProt P03303); experiment: Inhibition of rhinovirus 3C protease activity (FRET assay), HRV-14; assay type: biochemical; settings: read-out: Protease Inhibition kobs/I
T1 construct: Recombinant rhinovirus 3C proteases; made in house
Method in brief: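 Recombinant 3C protease (50–100 nM) was assayed in 50 mM tris pH 7.6, 1 mM EDTA, 2% DMSO, with about 1 μM DABCYL-GRAVFQGPVG-EDANS FRET substrate. Cleavage was followed as the rise in fluorescence. kobs/[I] was derived from progress curves of enzyme-initiated reactions.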

[2] = target: T2, rhinovirus 3C protease (HRV-2) (Human rhinovirus 2, UniProt P04936); experiment: Inhibition of rhinovirus 3C protease activity (FRET assay), HRV-2; assay type: biochemical; settings: read-out: Protease Inhibition kobs/I
T2 construct: Recombinant rhinovirus 3C proteases; made in house
Description: Stock solutions (50 mM, in DMSO) of various compounds were prepared; dilutions were in the same solvent. Recombinant rhinovirus 3C proteases (see Birch et al., “Purification of recombinant human rhinovirus 14 3C protease expressed in Escherichia coli,” Protein Expr. Pur. 1995, 6(5), 609–618) from serotypes 14, 16, and 2 were prepared by the following standard chromatographic procedures: (1) ion exchange using Q Sepharose Fast Flow from Pharmacia; (2) affinity chromatography using Affi-Gel Blue from Biorad; and (3) sizing using Sephadex G-100 from Pharmacia. Each assay sample contained 2% DMSO, 50 mM tris pH 7.6, 1 mM EDTA, a test compound at the indicated concentration, approximately 1 μM substrate, and 50–100 nM protease. The kobs/I values were obtained from reactions initiated by addition of enzyme rather than substrate. RVP activity was measured in the fluorescence resonance energy transfer assay. The substrate was (N-terminal) DABCYL-(Gly-Arg-Ala-Val-Phe-Gln-Gly-Pro-Val-Gly)-EDANS. In the uncleaved peptide, the EDANS fluorescence was quenched by the proximal DABCYL group. When the peptide was cleaved, the quenching was relieved, and activity was measured as an increase in fluorescence signal. In the Table, unless otherwise indicated, all data are for rhinovirus 3C protease from HRV serotype-14 (produced from the infectious cDNA clone constructed by Dr. Robert Rueckert, Institute for Molecular Virology, University of Wisconsin, Madison, Wis.). The data in the column designated kobs/[I] were measured from progress curves in enzyme start experiments.

[3] = target: T3, rhinovirus 3C protease (HRV-89) (Human rhinovirus A serotype 89, UniProt P07210); experiment: Inhibition of rhinovirus 3C protease activity (FRET assay), HRV-89; assay type: biochemical, human rhinovirus 89; settings: HRV-89 3C protease; progress curves, enzyme start; read-out: Protease Inhibition kobs/I
T3 construct: Recombinant rhinovirus 3C proteases

[4] = target: T4, rhinovirus 3C protease (HRV-16) (Human rhinovirus 16, UniProt Q82122); experiment: Inhibition of rhinovirus 3C protease activity (FRET assay), HRV-16; assay type: biochemical; settings: HRV-16 3C protease; progress curves, enzyme start; read-out: Protease Inhibition kobs/I
T4 construct: Recombinant rhinovirus 3C proteases; made in house
Description: Stock solutions (50 mM, in DMSO) of various compounds were prepared; dilutions were in the same solvent. Recombinant rhinovirus 3C proteases (see Birch et al., “Purification of recombinant human rhinovirus 14 3C protease expressed in Escherichia coli,” Protein Expr. Pur. 1995, 6(5), 609–618) from serotypes 14, 16, and 2 were prepared by the following standard chromatographic procedures: (1) ion exchange using Q Sepharose Fast Flow from Pharmacia; (2) affinity chromatography using Affi-Gel Blue from Biorad; and (3) sizing using Sephadex G-100 from Pharmacia. Each assay sample contained 2% DMSO, 50 mM tris pH 7.6, 1 mM EDTA, a test compound at the indicated concentration, approximately 1 μM substrate, and 50–100 nM protease. The kobs/I values were obtained from reactions initiated by addition of enzyme rather than substrate. RVP activity was measured in the fluorescence resonance energy transfer assay. The substrate was (N-terminal) DABCYL-(Gly-Arg-Ala-Val-Phe-Gln-Gly-Pro-Val-Gly)-EDANS. In the uncleaved peptide, the EDANS fluorescence was quenched by the proximal DABCYL group. When the peptide was cleaved, the quenching was relieved, and activity was measured as an increase in fluorescence signal. […] The data in the column designated kobs/[I] were measured from progress curves in enzyme start experiments.

HRV-14 = experiment: Antirhinoviral H1-HeLa cell culture assay (cell protection, XTT), HRV-14; assay type: cell-based, human rhinovirus; settings: read-out: Cell Protection EC50
Description: (§1) In this cell protection assay, the ability of compounds to protect cells against HRV infection was measured by the XTT dye reduction method, which is described in Weislow et al., J. Natl. Cancer Inst. 1989, vol. 81, 577–586.
(§2) H1-HeLa cells were infected with HRV-14 at a multiplicity of infection (m.o.i.) of 0.13 (virus particles/cell) or mock-infected with medium only. Infected or mock-infected cells were resuspended at 8×10^5 cells per mL, and incubated with appropriate concentrations of the compounds to be tested. Two days later, XTT/PMS was added to test plates and the amount of formazan produced was quantified spectrophotometrically at 450/650 nm. The EC50 value was calculated as the concentration of compound that increased the percentage of formazan production in compound-treated, virus-infected cells to 50% of that produced by compound-free, mock-infected cells. The 50% cytotoxic dose (CC50) was calculated as the concentration of compound that decreased the percentage of formazan produced in compound-treated, mock-infected cells to 50% of that produced by compound-free, mock-infected cells.
(§3) All strains of human rhinovirus (HRV) for use in this assay were purchased from American Type Culture Collection (ATCC), except for HRV serotype-14 (produced from the infectious cDNA clone constructed by Dr. Robert Rueckert, Institute for Molecular Virology, University of Wisconsin, Madison, Wis.). HRV stocks were propagated and viral assays were performed in H1-HeLa cells (ATCC). Cells were grown in minimal essential medium with 10% fetal bovine serum, available from Life Technologies (Gaithersburg, Md.).
(§4) The compounds were tested against control compounds WIN 51711, WIN 52084, and WIN 54954 (obtained from Sterling-Winthrop Pharmaceuticals), Pirodavir (obtained from Janssen Pharmaceuticals), and Pleconaril (prepared according to the method described in Diana et al., J. Med. Chem 1995, vol. 38, 1355). Antiviral data obtained for the test compounds are shown in the Table, where all data are for HRV serotype-14 unless otherwise noted in parentheses.

HRV-1A = experiment: Antirhinoviral H1-HeLa cell culture assay (cell protection, XTT), HRV-1A; assay type: cell-based, human rhinovirus; settings: Rhinovirus A, HRV1A, 48 h, H1-HeLa cells, two days
Description: as §1, §2, §3, §4

HRV-10 = experiment: Antirhinoviral H1-HeLa cell culture assay (cell protection, XTT), HRV-10; assay type: cell-based; settings: Human rhinovirus sp., HRV10, 48 h, HRV-10, H1-HeLa cells, two days
Description: as §1, §2, §3, §4

HRV-2 = experiment: Antirhinoviral H1-HeLa cell culture assay (cell protection, XTT), HRV-2; assay type: cell-based, human rhinovirus; settings: Rhinovirus A, HRV2, 48 h, HRV-2, H1-HeLa cells, two days
Description: as §1, §2, §3, §4

[5] = Cytotoxicity in mock-infected H1-HeLa cells (XTT); assay type: cell-based; settings: human, two days, read-out: Toxicity CC50
Description: as §1, §2, §3

H1-HeLa cells = experiment: Cytotoxicity in mock-infected H1-HeLa cells (XTT); assay type: cell-based; settings: two days, read-out: Toxicity CC50
Description: as §1, §2, §3

[6] = Rhinovirus B, HRV14, H1-HeLa, 48 h
[7] = HRV-14, H1-HeLa cells, XTT, two days

T1 sequence (P03303 1538-1719): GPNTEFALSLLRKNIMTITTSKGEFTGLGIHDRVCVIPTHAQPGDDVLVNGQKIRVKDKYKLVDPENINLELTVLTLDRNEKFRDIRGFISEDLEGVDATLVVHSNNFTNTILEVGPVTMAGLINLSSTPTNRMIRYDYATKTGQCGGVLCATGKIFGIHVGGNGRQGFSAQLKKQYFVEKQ
T2 sequence (P04936 1508-1690): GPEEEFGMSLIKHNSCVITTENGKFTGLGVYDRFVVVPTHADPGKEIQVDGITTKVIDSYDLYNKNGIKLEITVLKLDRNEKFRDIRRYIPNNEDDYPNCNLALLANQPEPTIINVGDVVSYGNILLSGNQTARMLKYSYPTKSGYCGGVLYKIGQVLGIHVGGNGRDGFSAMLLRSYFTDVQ
T4 sequence (Q82122 1511-1693): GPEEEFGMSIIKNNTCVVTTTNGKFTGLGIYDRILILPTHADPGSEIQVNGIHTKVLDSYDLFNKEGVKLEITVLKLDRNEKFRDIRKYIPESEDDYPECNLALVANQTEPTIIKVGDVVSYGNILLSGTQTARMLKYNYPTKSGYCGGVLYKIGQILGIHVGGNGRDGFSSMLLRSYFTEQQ
T3 sequence (P07210 1522-1704): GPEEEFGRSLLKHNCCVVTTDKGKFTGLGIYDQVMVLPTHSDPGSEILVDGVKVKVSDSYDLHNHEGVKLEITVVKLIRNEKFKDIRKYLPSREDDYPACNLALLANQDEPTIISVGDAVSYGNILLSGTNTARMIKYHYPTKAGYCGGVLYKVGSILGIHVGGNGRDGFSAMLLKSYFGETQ

SMILES | kinact/KI [1] [M⁻¹ s⁻¹] | kinact/KI [2] [M⁻¹ s⁻¹] | EC50 (HRV-14; [6]) [µM] | EC50 (HRV-1A) [µM] | EC50 (HRV-10) [µM] | EC50 (HRV-2) [µM] | CC50 at 2 days [5] [µM] | EC50 (HRV-14; [7]) [µM] | CC50 (H1-HeLa cells) [µM] | other results
CCOC(=O)/C=C/[C@H](C[C@@H]1CCNC1=O)NC(=O)C1=Cc2cc(Cl)ccc2OC1 [Compound 44, 4S-[(6-Chloro-2H-chromene-3-carbonyl)-amino]-5-(2-oxo-pyrrolidin-3S-yl)-pent-2-enoic acid ethyl ester] | 19700 | 385 | 0.16 | 5.1 | 0.459 | 0.645 | > 100 |  |  | kinact/KI [3]: 800 M⁻¹ s⁻¹; kinact/KI [4]: 2200 M⁻¹ s⁻¹
Cc1cc(CCCCCCCOc2ccc(C3=NCCO3)cc2)on1 [WIN 51711, reference compound] |  |  |  |  |  |  |  | 0.78 | > 60 | 
CCOC(=O)/C=C/[C@H](C[C@@H]1CCNC1=O)NC(=O)c1ccc2ccc(O)cc2c1 [Compound 54, 4S-[(7-Hydroxy-naphthalene-2-carbonyl)-amino]-5-(2-oxo-pyrrolidin-3S-yl)-pent-2-enoic acid ethyl ester] |  |  |  |  |  |  |  |  |  | kinact/KI ([1]; HRV-14 3C protease, progress curves, enzyme start): 220 M⁻¹ s⁻¹; kinact/KI ([2]; HRV-2 3C protease, progress curves, enzyme start): 35 M⁻¹ s⁻¹
CCOC(=O)/C=C/[C@H](C[C@@H]1CCNC1=O)NC(=O)c1ccc2ccccc2c1 [Compound 1, 4S-[(naphthalene-2-carbonyl)-amino]-5-(2-oxo-pyrrolidin-3S-yl)-pent-2-enoic acid ethyl ester] | 1090 | 110 | 0.15 |  |  | 1.35 | > 100 |  |  | 
Cc1cc(CCCCCOc2c(Cl)cc(C3=NCCO3)cc2Cl)on1 [WIN 54954, reference compound] |  |  |  |  |  |  |  | 2.13 | > 63 | 
CCOC(=O)/C=C/[C@H](C[C@@H]1CCNC1=O)NC(=O)c1ccc2ccc(Br)cc2c1 [Compound 53, 4S-[(7-Bromo-naphthalene-2-carbonyl)-amino]-5-(2-oxo-pyrrolidin-3S-yl)-pent-2-enoic acid ethyl ester] | 31400 | 385 | 0.184 | 4.18 | 0.546 | 0.422 | 56.2 |  |  | 
Cc1cc(CCCCCCCOc2ccc(C3=N[C@@H](C)CO3)cc2)on1 [WIN 52084, reference compound] |  |  |  |  |  |  |  | 0.07 | > 10 | 
CCOC(=O)/C=C/[C@H](C[C@@H]1CCNC1=O)NC(=O)C1=Cc2cc(Br)ccc2OC1 [Compound 52, 4S-[(6-Bromo-2H-chromene-3-carbonyl)-amino]-5-(2-oxo-pyrrolidin-3S-yl)-pent-2-enoic acid ethyl ester] | 25000 | 372 | 0.175 | 5.07 | 0.546 |  | 65 |  |  | 
